Measurements published in US11945822B2, “Pyrazolo-triazine and/or pyrazolo-pxrimidine derivatives as selective inhibitor of cyclin dependent kinase” (QURIENT CO., LTD., priority 2018, dated 2024).
Like-named read-outs stand apart in the source and are kept apart here.

Columns and labels:
MV4-11 = test: Cellular MV4-11 viability assay (CellTiter-Glo, 72 hours); format: cell-based; settings: Homo sapiens
Outline: (§1)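 72 h treatment, 37 °C, 5% CO2; DMSO ctrl, final <0.1%; CellTiter-Glo luminescence; n=2.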

CDK5/p25 = target: T1, CDK5/p25 (Homo sapiens, UniProt Q00535); test: Enzymatic assay for CDK5 (FRET based LANCE Ultra kinase assay); format: biochemical
T1 construct: purchased Invitrogen PR8543B
T1 sequence (Q00535 whole entry): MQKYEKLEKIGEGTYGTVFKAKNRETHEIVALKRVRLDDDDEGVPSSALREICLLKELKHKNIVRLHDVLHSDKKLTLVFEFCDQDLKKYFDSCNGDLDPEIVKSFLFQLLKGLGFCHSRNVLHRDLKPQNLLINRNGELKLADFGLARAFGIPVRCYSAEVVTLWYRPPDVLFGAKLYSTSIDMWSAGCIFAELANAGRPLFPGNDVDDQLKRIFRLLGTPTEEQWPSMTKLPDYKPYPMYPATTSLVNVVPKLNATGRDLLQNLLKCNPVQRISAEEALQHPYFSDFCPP
T1 sequence (Q15078 99-307 partner limits assumed): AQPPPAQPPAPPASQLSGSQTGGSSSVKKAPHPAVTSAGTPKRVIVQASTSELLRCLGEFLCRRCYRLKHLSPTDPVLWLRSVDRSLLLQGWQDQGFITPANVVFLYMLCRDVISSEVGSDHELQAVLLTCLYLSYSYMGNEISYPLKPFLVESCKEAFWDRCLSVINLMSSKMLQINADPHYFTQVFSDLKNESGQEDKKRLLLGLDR
Outline: (§2)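 LANCE Ultra TR-FRET: ULight-MBP peptide (68 nM) with ATP at Km, […], 60 min at 23° C. EDTA plus Eu-anti-phospho-MBP added, another 60 min, then 665/615 nm emission read. Compounds tested as 8-dose 4-fold DMSO dilutions.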

H460 = test: Cellular H460 viability assay (CellTiter-Glo, 72 hours); format: cell-based; settings: Homo sapiens, NCI-H460
Outline: as §1

CDK2/Cyclin A = target: T2, CDK2/Cyclin A (Homo sapiens, UniProt P24941); test: Enzymatic assay for CDK2 (FRET based LANCE Ultra kinase assay); format: biochemical
T2 construct: purchased Invitrogen PV6290
Outline: as §2

A2780 = test: Cellular A2780 viability assay (CellTiter-Glo, 72 hours); format: cell-based; settings: Homo sapiens
Source text: Human T-cell acute lymphoblastic leukemia cell line, MOLT-4 (ATCC, Cat #CRL-1582), Human multiple myeloma cell line, RPMI-8226 (Invitrogen, Cat #22400-089) and MM.1S (ATCC, Cat #CRL-2974), NSCLC (Non-small cell lung cancer) cell line H460 (ATCC, Cat #HTB-177), Human colon colorectal carcinoma cell line HCT116 (ATCC, Cat #CCL-247), Human acute monocytic leukemia cell line MV4-11 (ATCC, Cat #CRL-9591), OVCAR-3 (ATCC, Cat #HTB-161) and A2780 (ECACC, Cat #93112519) were obtained from ATCC. Cells were grown in RPMI-1640 media (Invitrogen, Cat #22400-089) supplemented with 10% FBS (Invitrogen, Cat #10099141) and 1% penicillin/streptomycin (Invitrogen, Cat #15070063) and cultured at 37° C., 5% CO2 in a humidified chamber. All cell lines were routinely tested for mycoplasma.
The effect of the CDK7 inhibitor to inhibit the growth of target cancer cells was evaluated through the 72 hours time period of viability assay. Briefly, the candidate cell line ware plated in 96 well plate at the following density of cells respectively. 1×10^4 cells/well for MOLT-4, RPMI-8226, MV4-11 and MM.1S, 5×10^3 for H460, HCT116 and OVCAR-3 and IX 10^3 for A2780. After 24 hours, the cells were treated with various concentrations of the compound (ranging from 0.0015 uM to 10 uM). DMSO solvent without compound served as a control and final DMSO concentration less than 0.1%. After 72 hours of incubation at 37° C., 5% CO2 incubator, cells were analyzed for the viability using the CellTiter-Glo Luminescent Cell Viability Assay (Promega, Cat #G7570). All viability assays were performed in duplicate and Luminescence was read using an Envision (Perkin Elmer, USA). Data was analyzed using XLfit software.

CDK7/Cyclin H/MNAT1 = target: T3, CDK7/Cyclin H/MNAT1 (Homo sapiens, UniProt P50613); test: Enzymatic assay for CDK7 (FRET based LANCE Ultra kinase assay); format: biochemical
T3 construct: purchased Invitrogen PR6749B
T3 sequence (P50613 whole entry): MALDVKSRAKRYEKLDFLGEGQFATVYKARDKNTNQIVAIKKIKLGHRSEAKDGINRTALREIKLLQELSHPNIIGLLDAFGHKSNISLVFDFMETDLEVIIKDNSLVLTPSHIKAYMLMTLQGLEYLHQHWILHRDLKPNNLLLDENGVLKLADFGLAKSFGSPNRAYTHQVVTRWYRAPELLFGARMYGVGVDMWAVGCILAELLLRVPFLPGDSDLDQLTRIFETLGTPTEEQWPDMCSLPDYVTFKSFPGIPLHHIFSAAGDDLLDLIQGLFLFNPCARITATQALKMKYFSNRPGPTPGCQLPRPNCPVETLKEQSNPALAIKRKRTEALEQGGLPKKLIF
T3 sequence (P51946 whole entry partner): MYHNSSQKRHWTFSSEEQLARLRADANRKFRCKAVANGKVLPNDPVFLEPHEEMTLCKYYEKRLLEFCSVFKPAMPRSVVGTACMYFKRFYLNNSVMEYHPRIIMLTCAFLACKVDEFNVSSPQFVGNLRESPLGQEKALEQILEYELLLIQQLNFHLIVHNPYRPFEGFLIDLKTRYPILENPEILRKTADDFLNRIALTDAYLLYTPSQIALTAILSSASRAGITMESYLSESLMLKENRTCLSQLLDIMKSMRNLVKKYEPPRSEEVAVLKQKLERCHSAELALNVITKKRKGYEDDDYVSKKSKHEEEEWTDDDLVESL
T3 sequence (P51948 whole entry partner): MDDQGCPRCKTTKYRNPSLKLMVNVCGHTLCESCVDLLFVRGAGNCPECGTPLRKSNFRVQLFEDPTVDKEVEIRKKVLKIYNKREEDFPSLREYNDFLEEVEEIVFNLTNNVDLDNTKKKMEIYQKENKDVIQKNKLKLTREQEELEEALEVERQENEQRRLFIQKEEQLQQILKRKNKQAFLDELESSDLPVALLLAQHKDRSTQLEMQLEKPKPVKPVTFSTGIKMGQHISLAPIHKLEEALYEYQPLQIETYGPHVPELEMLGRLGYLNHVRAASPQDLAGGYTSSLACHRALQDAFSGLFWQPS
Outline: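 LANCE Ultra TR-FRET kinase assay using a ULight-labeled peptide substrate and a Eu-labeled anti-phospho antibody, with ATP at its Km. Purified CDK/cyclin complex was added to compound after brief centrifugation.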

CDK1/Cyclin B = target: T4, CDK1/Cyclin B (Homo sapiens, UniProt P06493); test: Enzymatic assay for CDK1 (FRET based LANCE Ultra kinase assay); format: biochemical
T4 construct: purchased Invitrogen PR4768C
T4 sequence (P06493 whole entry): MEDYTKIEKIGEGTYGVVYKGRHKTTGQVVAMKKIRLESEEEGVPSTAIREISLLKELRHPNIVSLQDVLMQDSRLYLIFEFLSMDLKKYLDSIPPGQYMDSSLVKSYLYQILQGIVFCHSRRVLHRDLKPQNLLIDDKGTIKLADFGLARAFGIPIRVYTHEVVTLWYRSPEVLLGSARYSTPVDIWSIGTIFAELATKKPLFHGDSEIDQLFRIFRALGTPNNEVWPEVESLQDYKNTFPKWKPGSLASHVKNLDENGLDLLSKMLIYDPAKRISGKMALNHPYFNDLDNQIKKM
T4 sequence (P14635 whole entry partner): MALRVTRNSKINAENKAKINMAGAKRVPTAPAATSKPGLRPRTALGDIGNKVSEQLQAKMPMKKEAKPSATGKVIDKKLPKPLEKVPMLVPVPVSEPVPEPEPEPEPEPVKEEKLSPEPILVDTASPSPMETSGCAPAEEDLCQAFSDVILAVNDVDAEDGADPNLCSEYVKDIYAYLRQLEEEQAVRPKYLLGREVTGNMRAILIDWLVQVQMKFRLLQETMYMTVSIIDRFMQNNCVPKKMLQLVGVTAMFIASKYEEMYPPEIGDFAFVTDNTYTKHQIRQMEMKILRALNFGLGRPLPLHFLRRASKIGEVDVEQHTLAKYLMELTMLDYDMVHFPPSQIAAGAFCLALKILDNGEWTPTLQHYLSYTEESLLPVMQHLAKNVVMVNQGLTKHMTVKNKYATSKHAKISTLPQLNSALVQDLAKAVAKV
Outline: as §2

[1] = read-out: CDK5 enzymatic activity (IC50 range)
[2] = read-out: CDK2 enzymatic activity (IC50 range)
[3] = read-out: CDK7 enzymatic activity (IC50 range)
[4] = read-out: CDK1 enzymatic activity (IC50 range)
[5] = read-out: CDK5 enzymatic activity (IC50 activity range)
[6] = read-out: CDK2 enzymatic activity (IC50 activity range)
[7] = read-out: CDK7 enzymatic activity (IC50 activity range)
[8] = read-out: CDK1 enzymatic activity (IC50 activity range)

| SMILES | IC50 (MV4-11) | IC50 (CDK5/p25; [1]) | IC50 (H460) | IC50 (CDK2/Cyclin A; [2]) | IC50 (A2780) | CDK1/CDK7: Selectivity of CDK7 inhibition over CDK1 inhibition (CDK7/Cyclin H/MNAT1; CDK7 over CDK1) | CDK2/CDK7: Selectivity of CDK7 inhibition over CDK2 inhibition (CDK7/Cyclin H/MNAT1; CDK7 over CDK2) | CDK5/CDK7: Selectivity of CDK7 inhibition over CDK5 inhibition (CDK7/Cyclin H/MNAT1; CDK7 over CDK5) | IC50 (CDK7/Cyclin H/MNAT1; [3]) | IC50 (CDK1/Cyclin B; [4]) | IC50 (CDK5/p25; [5]) | IC50 (CDK2/Cyclin A; [6]) | CDK1/CDK7: Selectivity of CDK7 inhibition over CDK1 inhibition (CDK7/Cyclin H/MNAT1; CDK1/CDK7) | CDK2/CDK7: Selectivity of CDK7 inhibition over CDK2 inhibition (CDK7/Cyclin H/MNAT1; CDK2/CDK7) | IC50 (CDK7/Cyclin H/MNAT1; [7]) | IC50 (CDK1/Cyclin B; [8]) | CDK5/CDK7: Selectivity of CDK7 inhibition over CDK5 inhibition (CDK7/Cyclin H/MNAT1; CDK5/CDK7) |
| --- | --- | --- | --- | --- | --- | --- | --- | --- | --- | --- | --- | --- | --- | --- | --- | --- | --- |
| CC(C)c1cnn2c(NCc3c(Cl)cccc3-n3ccc(C(C)(C)O)n3)nc(N3CCC(C)(N)CC3)nc12 [Compound 246] | < 1000 nM | > 1000 nM | < 1000 nM | > 1000 nM | ≤ 1000 nM | A (A=greater than 200 fold) | A (A=greater than 200 fold) | A (A=greater than 200 fold) | < 100 nM | > 1000 nM | – | – | – | – | – | – | – |
| CC(C)c1cnn2c(NCc3ccccc3-c3ccc4ccccc4n3)nc(NCC[C@H](O)CN)nc12 [Compound 247] | 1000 to 10000 nM | > 1000 nM | 1000 to 10000 nM | > 1000 nM | 1000 to 10000 nM | A (A=greater than 200 fold) | A (A=greater than 200 fold) | A (A=greater than 200 fold) | < 100 nM | > 1000 nM | – | – | – | – | – | – | – |
| CC(C)c1cnn2c(NCc3ccccc3-c3ccc4ccccc4n3)nc(NC[C@@H](O)CN)nc12 [Compound 248] | 1000 to 10000 nM | > 1000 nM | < 1000 nM | > 1000 nM | ≤ 1000 nM | A (A=greater than 200 fold) | A (A=greater than 200 fold) | A (A=greater than 200 fold) | < 100 nM | > 1000 nM | – | – | – | – | – | – | – |
| CC(C)c1cnn2c(NCc3c(Cl)cccc3-n3ccc(C(C)(C)O)n3)nc(N3CCC(F)(CN)CC3)nc12 [Compound 252] | < 1000 nM | – | < 1000 nM | – | ≤ 1000 nM | – | – | – | – | – | > 1000 nM | > 1000 nM | A (A=greater than 200 fold) | A (A=greater than 200 fold) | < 100 nM | > 1000 nM | A (A=greater than 200 fold) |
| CCC(O)(CC)c1ccn(-c2cccc(Cl)c2CNc2nc(N3CCC(N)CC3)nc3c(C(C)C)cnn23)n1 [Compound 253] | 1000 to 10000 nM | – | 1000 to 10000 nM | – | 1000 to 10000 nM | – | – | – | – | – | > 1000 nM | > 1000 nM | B (B=less than 200 fold, but greater than 20 fold) | B (B=less than 200 fold, but greater than 20 fold) | 100 to 1000 nM | > 1000 nM | B (B=less than 200 fold, but greater than 20 fold) |
| CC(C)c1cnn2c(NCc3c(Cl)cccc3N3CC[C@@H](C(C)(C)O)C3)nc(N3CCC(N)CC3)nc12 [Compound 254] | < 1000 nM | – | < 1000 nM | – | ≤ 1000 nM | – | – | – | – | – | 100 to 1000 nM | > 1000 nM | A (A=greater than 200 fold) | B (B=less than 200 fold, but greater than 20 fold) | < 100 nM | > 1000 nM | B (B=less than 200 fold, but greater than 20 fold) |
| CC(C)c1cnn2c(NCc3ccccc3-c3ccc4ccccc4n3)nc(N3CCCC[C@H]3CCO)nc12 [Compound 260] | 1000 to 10000 nM | – | 1000 to 10000 nM | – | 1000 to 10000 nM | – | – | – | – | – | > 1000 nM | > 1000 nM | B (B=less than 200 fold, but greater than 20 fold) | B (B=less than 200 fold, but greater than 20 fold) | 100 to 1000 nM | > 1000 nM | B (B=less than 200 fold, but greater than 20 fold) |
| CCN1CC[C@H](CNc2nc(NCc3ccccc3-c3ccc4ccccc4n3)n3ncc(C(C)C)c3n2)[C@@H](O)C1 [Compound 261] | 1000 to 10000 nM | – | < 1000 nM | – | ≤ 1000 nM | – | – | – | – | – | > 1000 nM | > 1000 nM | A (A=greater than 200 fold) | A (A=greater than 200 fold) | < 100 nM | > 1000 nM | A (A=greater than 200 fold) |

Second part, led by results:

| IC50 (MV4-11) | IC50 (CDK5/p25; [1]) | IC50 (H460) | IC50 (CDK2/Cyclin A; [2]) | IC50 (A2780) | CDK1/CDK7: Selectivity of CDK7 inhibition over CDK1 inhibition (CDK7/Cyclin H/MNAT1; CDK7 over CDK1) | CDK2/CDK7: Selectivity of CDK7 inhibition over CDK2 inhibition (CDK7/Cyclin H/MNAT1; CDK7 over CDK2) | CDK5/CDK7: Selectivity of CDK7 inhibition over CDK5 inhibition (CDK7/Cyclin H/MNAT1; CDK7 over CDK5) | IC50 (CDK7/Cyclin H/MNAT1; [3]) | IC50 (CDK1/Cyclin B; [4]) | IC50 (CDK5/p25; [5]) | IC50 (CDK2/Cyclin A; [6]) | CDK1/CDK7: Selectivity of CDK7 inhibition over CDK1 inhibition (CDK7/Cyclin H/MNAT1; CDK1/CDK7) | CDK2/CDK7: Selectivity of CDK7 inhibition over CDK2 inhibition (CDK7/Cyclin H/MNAT1; CDK2/CDK7) | IC50 (CDK7/Cyclin H/MNAT1; [7]) | IC50 (CDK1/Cyclin B; [8]) | SMILES | CDK5/CDK7: Selectivity of CDK7 inhibition over CDK5 inhibition (CDK7/Cyclin H/MNAT1; CDK5/CDK7) |
| --- | --- | --- | --- | --- | --- | --- | --- | --- | --- | --- | --- | --- | --- | --- | --- | --- | --- |
| < 1000 nM | > 1000 nM | < 1000 nM | > 1000 nM | ≤ 1000 nM | A (A=greater than 200 fold) | A (A=greater than 200 fold) | A (A=greater than 200 fold) | < 100 nM | > 1000 nM | – | – | – | – | – | – | CC(C)c1cnn2c(NCc3c(Cl)cccc3-c3cc(C(C)(C)O)n(C)n3)nc(N3CCC(N)CC3)nc12 [Compound 244] | – |
| < 1000 nM | – | < 1000 nM | – | ≤ 1000 nM | – | – | – | – | – | > 1000 nM | > 1000 nM | A (A=greater than 200 fold) | A (A=greater than 200 fold) | < 100 nM | > 1000 nM | CC(C)c1cnn2c(NCc3c(Cl)cccc3-c3ncc(C(C)(C)O)s3)nc(N3CCC(N)CC3)nc12 [Compound 249] | A (A=greater than 200 fold) |
| 1000 to 10000 nM | – | 1000 to 10000 nM | – | 1000 to 10000 nM | – | – | – | – | – | > 1000 nM | > 1000 nM | A (A=greater than 200 fold) | A (A=greater than 200 fold) | < 100 nM | > 1000 nM | CC(C)c1cnn2c(NCc3c(Cl)cccc3N3CC[C@H](C(C)(C)O)C3)nc(N3CCC(N)CC3)nc12 [Compound 250] | B (B=less than 200 fold, but greater than 20 fold) |
| < 1000 nM | – | < 1000 nM | – | ≤ 1000 nM | – | – | – | – | – | 100 to 1000 nM | > 1000 nM | A (A=greater than 200 fold) | A (A=greater than 200 fold) | < 100 nM | > 1000 nM | CC(C)c1cnn2c(NCc3cccc4ccc(C(C)(C)O)nc34)nc(N3CCC(N)CC3)nc12 [Compound 255] | B (B=less than 200 fold, but greater than 20 fold) |
| < 1000 nM | – | < 1000 nM | – | ≤ 1000 nM | – | – | – | – | – | > 1000 nM | > 1000 nM | A (A=greater than 200 fold) | A (A=greater than 200 fold) | < 100 nM | > 1000 nM | Cc1cn(-c2cccc(Cl)c2CNc2nc(N3CCC(N)CC3)nc3c(C(C)C)cnn23)nc1C(C)(C)O [Compound 256] | A (A=greater than 200 fold) |
| < 1000 nM | – | < 1000 nM | – | ≤ 1000 nM | – | – | – | – | – | > 1000 nM | > 1000 nM | A (A=greater than 200 fold) | A (A=greater than 200 fold) | < 100 nM | > 1000 nM | CC(C)c1cnn2c(NCc3c(Cl)cccc3-c3cc(C(C)(C)O)nn3C)nc(N3CCC(N)CC3)nc12 [Compound 258] | A (A=greater than 200 fold) |
